For seven molecules, inhibition and IC50 results are on record in ChEMBL document CHEMBL3352669, “Tetrahydrobenzo[h][1,6]naphthyridine-6-chlorotacrine hybrids as a new family of anti-Alzheimer agents targeting β-amyloid, tau, and cholinesterase pathologies” (Eur J Med Chem, 2014).

Structures are written as SMILES. pIC50: −log10 of the molar value.

A word on the inhibition: it is the relative decrease from the control value, in per cent. Broadly, the pIC50 is the IC50 on a negative log10 scale, so that one unit is a factor of ten.

For test [1], the target named is Amyloid-beta precursor protein (Homo sapiens) (UniProt P05067). Briefly: Inhibition of aggregation of amyloid beta-42 (unknown origin) expressed in Escherichia coli BL21 (DE3) assessed as amyloid fibril formation at 10 uM after 24 hrs by thioflavin S fluorescence method.
Test [2] concerns the target Microtubule-associated protein tau (Homo sapiens) (UniProt P10636). Briefly: Inhibition of aggregation of tau protein (unknown origin) expressed in Escherichia coli BL21 (DE3) assessed as amyloid fibril formation at 10 uM after 24 hrs by thioflavin S fluorescence method.
For test [3], the target named is Acetylcholinesterase (Homo sapiens, UniProt P22303). Briefly: Inhibition of human recombinant AChE using acetylthiocholine iodide as substrate by spectrophotometric analysis. The following applies: for pIC50: read-out: IC50.
Test [4] deals with Cholinesterase (Homo sapiens, UniProt P06276). Briefly: Inhibition of human recombinant BChE using butyrylthiocholine iodide as substrate by spectrophotometric analysis. The following applies: for pIC50: read-out: IC50.
Cholinesterase, sequence (P06276 whole entry): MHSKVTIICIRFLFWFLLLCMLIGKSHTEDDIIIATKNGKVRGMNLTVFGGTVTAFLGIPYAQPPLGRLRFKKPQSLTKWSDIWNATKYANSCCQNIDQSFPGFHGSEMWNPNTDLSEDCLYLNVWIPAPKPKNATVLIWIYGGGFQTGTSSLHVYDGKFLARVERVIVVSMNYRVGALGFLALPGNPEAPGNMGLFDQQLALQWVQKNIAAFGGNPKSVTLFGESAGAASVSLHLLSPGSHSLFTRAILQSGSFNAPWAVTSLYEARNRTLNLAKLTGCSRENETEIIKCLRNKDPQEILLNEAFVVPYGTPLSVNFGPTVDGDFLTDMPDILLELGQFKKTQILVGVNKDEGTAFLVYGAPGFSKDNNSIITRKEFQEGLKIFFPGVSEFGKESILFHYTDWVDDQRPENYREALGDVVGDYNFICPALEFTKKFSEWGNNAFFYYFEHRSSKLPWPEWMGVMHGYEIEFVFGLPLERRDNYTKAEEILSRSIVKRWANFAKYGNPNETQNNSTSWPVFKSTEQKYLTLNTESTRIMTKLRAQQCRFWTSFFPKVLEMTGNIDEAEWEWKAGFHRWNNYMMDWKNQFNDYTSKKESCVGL

Acetylcholinesterase, sequence (P22303 whole entry): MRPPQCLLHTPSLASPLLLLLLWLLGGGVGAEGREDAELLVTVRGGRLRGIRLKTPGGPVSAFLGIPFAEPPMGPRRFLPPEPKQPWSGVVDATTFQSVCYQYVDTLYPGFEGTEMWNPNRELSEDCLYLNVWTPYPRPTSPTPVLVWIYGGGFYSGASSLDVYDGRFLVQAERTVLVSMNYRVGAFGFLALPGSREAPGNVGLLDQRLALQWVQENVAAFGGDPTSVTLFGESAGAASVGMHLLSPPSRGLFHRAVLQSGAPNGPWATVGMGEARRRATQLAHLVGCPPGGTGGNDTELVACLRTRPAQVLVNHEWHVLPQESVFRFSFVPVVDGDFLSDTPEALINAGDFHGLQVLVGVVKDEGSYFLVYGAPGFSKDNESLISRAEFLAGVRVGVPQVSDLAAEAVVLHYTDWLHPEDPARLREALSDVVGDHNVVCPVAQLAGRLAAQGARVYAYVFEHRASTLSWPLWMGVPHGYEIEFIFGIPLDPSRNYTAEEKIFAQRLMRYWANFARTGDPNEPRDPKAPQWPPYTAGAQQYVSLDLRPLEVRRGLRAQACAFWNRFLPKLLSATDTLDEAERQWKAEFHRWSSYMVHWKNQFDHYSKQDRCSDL
Amyloid-beta precursor protein (Homo sapiens), sequence (P05067 whole entry): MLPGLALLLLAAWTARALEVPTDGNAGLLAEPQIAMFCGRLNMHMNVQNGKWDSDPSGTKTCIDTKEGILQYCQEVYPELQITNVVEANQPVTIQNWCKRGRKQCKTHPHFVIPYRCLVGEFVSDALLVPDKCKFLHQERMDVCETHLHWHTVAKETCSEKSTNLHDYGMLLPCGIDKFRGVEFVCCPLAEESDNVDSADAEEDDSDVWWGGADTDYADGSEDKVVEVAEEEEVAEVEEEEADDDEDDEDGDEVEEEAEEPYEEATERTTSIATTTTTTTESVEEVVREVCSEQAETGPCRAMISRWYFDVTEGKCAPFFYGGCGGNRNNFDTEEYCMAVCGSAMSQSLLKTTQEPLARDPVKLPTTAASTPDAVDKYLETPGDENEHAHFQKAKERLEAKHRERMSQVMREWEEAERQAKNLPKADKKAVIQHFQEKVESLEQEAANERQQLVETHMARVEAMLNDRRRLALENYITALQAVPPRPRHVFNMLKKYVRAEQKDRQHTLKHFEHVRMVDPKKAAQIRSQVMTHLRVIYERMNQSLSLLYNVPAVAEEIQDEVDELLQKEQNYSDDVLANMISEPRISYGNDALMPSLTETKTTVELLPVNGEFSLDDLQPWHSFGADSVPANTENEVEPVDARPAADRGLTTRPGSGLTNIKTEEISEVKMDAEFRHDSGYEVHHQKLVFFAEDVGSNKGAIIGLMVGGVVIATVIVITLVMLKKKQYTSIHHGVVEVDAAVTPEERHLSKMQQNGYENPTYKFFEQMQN
Microtubule-associated protein tau (Homo sapiens), sequence (P10636 whole entry): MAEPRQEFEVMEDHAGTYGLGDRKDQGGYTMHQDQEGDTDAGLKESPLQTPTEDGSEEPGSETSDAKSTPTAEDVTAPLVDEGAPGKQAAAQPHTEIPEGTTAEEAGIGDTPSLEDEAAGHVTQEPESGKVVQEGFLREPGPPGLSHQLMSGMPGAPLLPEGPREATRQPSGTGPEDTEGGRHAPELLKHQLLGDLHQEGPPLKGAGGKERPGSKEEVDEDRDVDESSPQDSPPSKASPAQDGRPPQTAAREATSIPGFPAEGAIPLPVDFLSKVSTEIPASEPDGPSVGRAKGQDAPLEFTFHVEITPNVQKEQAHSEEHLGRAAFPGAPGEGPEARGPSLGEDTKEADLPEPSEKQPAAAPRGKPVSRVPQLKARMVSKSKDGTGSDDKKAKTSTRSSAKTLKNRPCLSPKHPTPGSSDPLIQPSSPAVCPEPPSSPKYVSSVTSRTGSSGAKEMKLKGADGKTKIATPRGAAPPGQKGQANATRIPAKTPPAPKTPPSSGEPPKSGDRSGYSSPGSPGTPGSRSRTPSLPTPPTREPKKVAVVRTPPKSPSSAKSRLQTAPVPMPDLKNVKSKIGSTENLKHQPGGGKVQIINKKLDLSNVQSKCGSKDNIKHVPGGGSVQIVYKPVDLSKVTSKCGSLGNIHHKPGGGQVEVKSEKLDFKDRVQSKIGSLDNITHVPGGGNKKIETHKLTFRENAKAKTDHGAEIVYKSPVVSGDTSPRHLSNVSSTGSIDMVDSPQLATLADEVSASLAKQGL

For `O=C(NCCCCCCCCNc1c2c(nc3cc(Cl)ccc13)CCCC2)c1ccc2nc(-c3ccc(Cl)cc3)c3c(c2c1)NCCC3`, the inhibition in test [1] amounted to 77.5%; in test [2], 68.7%.
The corresponding values for `Nc1c2c(nc3cc(Cl)ccc13)CCCC2` are 11% and 1.4%.
Regarding `O=C(NCCCNc1c2c(nc3cc(Cl)ccc13)CCCC2)c1ccc2nc(-c3ccc(Cl)cc3)c3c(c2c1)NCCC3`, the pIC50 is 11.22 in test [3] and 6.92 in test [4]. The figures for the inhibition in test [1] and in test [2] were 52.5% and 40.7%, respectively.
The corresponding values for `O=C(NCCCCCNc1c2c(nc3cc(Cl)ccc13)CCCC2)c1ccc2nc(-c3ccc(Cl)cc3)c3c(c2c1)NCCC3` are 7.85, 6.47, 54.3% and 57.7%.
The corresponding values for `O=C(NCCCCNc1c2c(nc3cc(Cl)ccc13)CCCC2)c1ccc2nc(-c3ccc(Cl)cc3)c3c(c2c1)NCCC3` are 7.85, 6.69, 55.8% and 58.9%.
Take `O=C(NCCCCCCCCNc1c2c(nc3cc(Cl)ccc13)CCCC2)c1ccc2nc(-c3ccc(Cl)cc3)c3c(c2c1)OCCC3`: the pIC50 was 7.71 in test [3] and 6.65 in test [4]. In addition, the inhibition in test [1] is 54.6%; in test [2], 37.8%.
On to `CCOC(=O)c1ccc2nc(-c3ccc(Cl)cc3)c3c(c2c1)OCCC3`, for which the IC50 entry in test [3] and in test [4] was “Not Active” each time. Moreover, the inhibition came out at 41.8% in test [1] and 27.9% in test [2].
